Reference: ChEMBL document CHEMBL4152238, “Design, synthesis, structure-activity relationships and X-ray structural studies of novel 1-oxopyrimido[4,5-c]quinoline-2-acetic acid derivatives as selective and potent inhibitors of human aldose reductase” (Eur J Med Chem, 2018)
The source made the active and inactive calls. The calls are words filed in the database; no cut-off is given here.

Assays:
[1] = biological target: Aldo-keto reductase family 1 member B10 (Homo sapiens, UniProt O60218); experiment: Inhibition of N-terminal His10-tagged AKR1B10 (unknown origin) expressed in Escherichia coli BL21 using D,L-glyceraldehyde as substrate pretreated for 5 mins followed by substrate addition by spectrophotometric method
Chain of Aldo-keto reductase family 1 member B10 (O60218 whole entry): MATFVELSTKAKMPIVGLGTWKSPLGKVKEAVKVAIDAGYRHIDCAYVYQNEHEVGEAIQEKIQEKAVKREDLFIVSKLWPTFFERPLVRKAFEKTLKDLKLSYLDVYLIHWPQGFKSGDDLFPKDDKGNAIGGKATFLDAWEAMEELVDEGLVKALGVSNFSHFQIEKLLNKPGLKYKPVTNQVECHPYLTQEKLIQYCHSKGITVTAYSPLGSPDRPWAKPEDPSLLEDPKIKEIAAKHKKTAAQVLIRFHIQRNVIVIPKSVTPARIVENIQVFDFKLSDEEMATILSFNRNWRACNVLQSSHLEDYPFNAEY

[2] = Selectivity ratio of IC50 for N-terminal His10-tagged AKR1B10 (unknown origin) expressed in Escherichia coli BL21 to IC50 for […] AKR1B1 expressed in Escherichia coli BL21
HT-1080 = experiment: Cytotoxicity against human HT1080 cells after 72 hrs by MTT assay; type: functional, cell-based; conditions: HT-1080, 72 h
[3] = Inhibition of […] AKR1B1 expressed in Escherichia coli BL21 using D,L-glyceraldehyde as substrate pretreated for 5 mins followed by substrate addition by spectrophotometric method; conditions: for Ki: read-out: Ki(app)
Cricetulus griseus = species: Cricetulus griseus; experiment: Inhibition of […] AKR1B1 expressed in Escherichia coli BL21 up to 10 uM using D,L-glyceraldehyde as substrate pretreated for 5 mins followed by substrate addition by spectrophotometric method

Row | Structure (SMILES) | IC50 [1] [nM] | Ratio IC50 [2] | IC50 (HT-1080) [nM] | IC50 [3] [nM] | Ki [3] [nM] | inhibition (Cricetulus griseus)
1 | COc1ccc(-c2nc3ccc(F)cc3c3c(=O)n(CC(=O)O)c(C)nc23)cc1 | 10000 | 38 | > 100000 | 260 | 240 | 
2 | Cc1nc2c(-c3ccccc3)nc3ccccc3c2c(=O)n1CC(=O)O | 6390 | 14 |  | 430 to 460 | 440 | 
3 | Cc1nc2c(-c3ccc(Cl)cc3)nc3ccc(Cl)cc3c2c(=O)n1CC(=O)O | 9610 | 6 | 30200 | 1540 |  | 
4 | CCc1nc2c(-c3ccc(Cl)cc3)nc3ccccc3c2c(=O)n1CC(=O)O | 4710 | 39 |  | 120 | 73 | 
5 | CCc1nc2c(-c3ccc(Cl)cc3)nc3ccc(F)cc3c2c(=O)n1CC(=O)O | 3890 | 9 |  | 410 | 500 | 
6 | O=C(O)Cn1c(Cc2ccc(Cl)cc2)nc2c(-c3ccc(Cl)cc3)nc3ccccc3c2c1=O | 2990 | 3 |  | 1010 |  | 
7 | Cc1nc2c(-c3ccc(Br)cc3)nc3ccccc3c2c(=O)n1CC(=O)O | 10000 | 50 | > 100000 | 200 | 150 | 
8 | COc1ccc2nc(-c3ccc(Cl)cc3)c3nc(C)n(CC(=O)O)c(=O)c3c2c1 | 15000 | 5 | 86700 | 3140 |  | 
9 | O=C(O)Cn1c(Cc2ccc(Cl)cc2)nc2c(-c3ccccc3)nc3ccccc3c2c1=O | 5870 | 9 |  | 660 |  | 
10 | Cc1nc2c(-c3ccc(Br)cc3)nc3ccc(F)cc3c2c(=O)n1CC(=O)O | 9610 | 17 | > 100000 | 570 |  | 
11 | Cc1nc2c(-c3ccc(Cl)cc3)nc3ccccc3c2c(=O)n1CC(=O)O | 7860 | 37 | > 100000 | 210 | 130 | 
12 | COc1ccc(-c2nc3ccc(Cl)cc3c3c(=O)n(CC(=O)O)c(C)nc23)cc1 | 17000 | 22 | 78100 | 760 |  | 
13 | Nn1c(-c2ccc(Cl)cc2)nc2c(-c3ccc(Cl)cc3)nc3ccc(Cl)cc3c2c1=O |  |  |  |  |  | inactive
14 | CCCc1nc2c(-c3ccc(Cl)cc3)nc3ccccc3c2c(=O)n1CC(=O)O | 3330 | 18 |  | 190 | 130 | 
15 | Cc1nc2c(-c3ccc(Br)cc3)nc3ccc(Cl)cc3c2c(=O)n1CC(=O)O | 13800 | 7 | > 100000 | 1920 |  | 
16 | Cc1nc2c(-c3ccc(Cl)cc3)nc3ccc(F)cc3c2c(=O)n1CC(=O)O | 8180 | 23 | > 100000 | 350 | 240 | 
17 | COc1cccc2c1C(=O)c1c(O)c3c(c(O)c1C2=O)C[C@@](O)(C(=O)CO)C[C@@H]3O[C@H]1C[C@H](N)[C@H](O)[C@H](C)O1 [DOXORUBICIN] |  |  | 5.8 |  |  | 
18 | O=C(O)Cn1c(Cc2ccccc2)nc2c(-c3ccc(Cl)cc3)nc3ccccc3c2c1=O | 2350 | 1 |  | 2650 |  | 
19 | Cc1ccc2nc(-c3ccc(Cl)cc3)c3nc(C)n(CC(=O)O)c(=O)c3c2c1 | 28500 | 6 | > 100000 | 4920 |  | 
20 | Nn1c(-c2ccc(Br)cc2)nc2c(-c3ccc(Br)cc3)nc3ccc(Cl)cc3c2c1=O |  |  |  |  |  | inactive
21 | Cc1nc2c(-c3ccc(Br)cc3)nc3ccc(Br)cc3c2c(=O)n1CC(=O)O | 16300 | 10 | > 100000 | 1570 |  | 
22 | Cc1nc2c(-c3ccc(Cl)cc3)nc3ccc(Br)cc3c2c(=O)n1CC(=O)O | 17800 | 8 | > 100000 | 2220 |  | 
